# Laboratory results published in patent publication US11205502B2, “Processing method and processing apparatus for efficacy of combined drug” (Institute of radiation medicine, academy of military …, priority 2015, dated 2021).
# Tested on: human hepatocellular carcinoma cell HepG2
# Test: MTT method, growth inhibition of HepG2 by NX, TX and NX/TX combined application; expected additive effect by equivalent dose conversion
# Type: cell-based
# Conditions: for Efficacy of NX / Efficacy of TX: from fitted single-use equation
# Source text: Title: the nitrohydroxyl compound (NX) is an anti-infectious drug. […] Taxol (TX) is an anticancer drug frequently used in clinic. In an NX/TX combined application, the growth of a human hepatocellular carcinoma cell HepG2 is inhibited in an MTT method. A method for quantitatively processing relevant indexes of synergistic/additive/antagonistic effect is described, which provides a reference for research and development of a novel anticancer compound.
# Step 1: a dose-effect relationship table of dose levels of each single drug and each member in a combined group is prepared, and a respective dose-effect relationship curve equation is fitted. For dose-effect relationship data among the NX, the TX and the single drug, the NX+TX at a fixed proportion in combined use (1/1, μg/ml+ng/ml), and dose-effect relationship data of the TX at a fixed concentration (2 ng/ml)+the NX at different concentrations in the combined use, see a table 1.
# Step 2: the dose is converted sequentially, and each line of the dose-effect relationship data formed into an expected additive efficacy curve band under a combined condition is calculated.
# Descriptions on numerical calculation in each column of the table 2: (3) column: data in (2) column are calculated with the formula (2); (4) column: data in (3) column are calculated with the formula (1); (5) column: (1) column+(4) column; (6) column: data in (5) column are calculated with the formula (1).
# Descriptions on numerical calculation in each column: (7) column: data in (1) column are calculated with the formula (1); (8) column: data in (7) column are calculated with the formula (2); (9) column: (2) column+(8) column; (10) column: data in (9) column are calculated with the formula (2); “-” indicates to be beyond the dose-effect range of the TX.
# Descriptions on numerical calculation in each column: (3) column: from the table 2; (4) column: from the table 3; (5) column: from the table 1; (6) column: (5) column data/(3) column data; (7) column: (5) column data/(4) column data; (8) column: standards are referred to the previous CId calculation.
smiles,measurement,setting,value
"O=[N+]([O-])c1ccc(O)c2ncccc12 [NX, nitrohydroxyl compound]",Inhibition rate,NX 0.5 μg/ml single use,5.5%
same,Efficacy of NX,NX 0.5 μg/ml,5.5596%
same,Efficacy of NX,NX 0.6 μg/ml,6.4726%
same,Efficacy of NX,NX 0.7 μg/ml,7.7324%
same,Efficacy of NX,NX 0.8 μg/ml,9.3724%
same,Efficacy of NX,NX 0.9 μg/ml,11.4093%
same,Inhibition rate,NX 1 μg/ml single use,14%
same,Efficacy of NX,NX 1 μg/ml,13.8409%
same,Efficacy of NX,NX 1.2 μg/ml,19.7842%
same,Efficacy of NX,NX 1.4 μg/ml,26.8326%
same,Efficacy of NX,NX 1.6 μg/ml,34.4514%
same,Efficacy of NX,NX 1.8 μg/ml,42.0953%
same,Inhibition rate,NX 2 μg/ml single use,49.2%
same,Efficacy of NX,NX 2 μg/ml,49.3297%
same,Efficacy of NX,NX 2.4 μg/ml,61.6284%
same,Efficacy of NX,NX 2.8 μg/ml,70.7302%
same,Efficacy of NX,NX 3.2 μg/ml,77.1469%
same,Efficacy of NX,NX 3.6 μg/ml,81.6125%
same,Inhibition rate,NX 4 μg/ml single use,84.9%
same,Efficacy of NX,NX 4 μg/ml,84.7367%
same,Efficacy of NX,NX 5 μg/ml,89.1832%
same,Efficacy of NX,NX 6 μg/ml,91.2729%
same,Efficacy of NX,NX 7 μg/ml,92.3603%
same,Inhibition rate,NX 8 μg/ml single use,92.9%
same,Efficacy of NX,NX 8 μg/ml,92.9754%
same,Efficacy of NX,NX 10 μg/ml,93.5845%
same,Efficacy of NX,NX 12 μg/ml,93.8519%
same,Efficacy of NX,NX 14 μg/ml,93.9866%
same,Inhibition rate,NX 16 μg/ml single use,94.1%
same,Efficacy of NX,NX 16 μg/ml,94.0615%
same,NX dose limits of the additive effect,TX fixed dose 2 ng/ml,2.1229−4.5777 μg/ml
"CC(=O)O[C@H]1C(=O)[C@@]2(C)[C@H]([C@H](OC(=O)c3ccccc3)[C@]3(O)C[C@H](OC(=O)[C@H](O)[C@@H](NC(=O)c4ccccc4)c4ccccc4)C(C)=C1C3(C)C)[C@]1(OC(C)=O)CO[C@@H]1C[C@@H]2O [TX, Taxol]",inhibition at 0.0005 µg/mL,"Homo sapiens, HepG2, TX 0.5 ng/ml single use, read-out: Inhibition rate",4.5%
same,inhibition at 0.001 µg/mL,"Homo sapiens, HepG2, TX 1 ng/ml single use, read-out: Inhibition rate",14.1%
same,inhibition at 0.002 µg/mL,"Homo sapiens, HepG2, TX 2 ng/ml single use, read-out: Inhibition rate",32.5%
same,inhibition at 0.004 µg/mL,"Homo sapiens, HepG2, TX 4 ng/ml single use, read-out: Inhibition rate",59.3%
same,inhibition at 0.008 µg/mL,"Homo sapiens, HepG2, TX 8 ng/ml single use, read-out: Inhibition rate",80.3%
same,inhibition at 0.016 µg/mL,"Homo sapiens, HepG2, TX 16 ng/ml single use, read-out: Inhibition rate",87.4%
same,Efficacy of TX,TX 0.5 ng/ml,4.9763%
same,Efficacy of TX,TX 0.6 ng/ml,6.4296%
same,Efficacy of TX,TX 0.7 ng/ml,8.0213%
same,Efficacy of TX,TX 0.8 ng/ml,9.7270%
same,Efficacy of TX,TX 0.9 ng/ml,11.5241%
same,Efficacy of TX,TX 1 ng/ml,13.3922%
same,Efficacy of TX,TX 1.2 ng/ml,17.2688%
same,Efficacy of TX,TX 1.4 ng/ml,21.2305%
same,Efficacy of TX,TX 1.6 ng/ml,25.1792%
same,Efficacy of TX,TX 1.8 ng/ml,29.0423%
same,Efficacy of TX,TX 2 ng/ml,32.7687%
same,Efficacy of TX,TX 2.4 ng/ml,39.6901%
same,Efficacy of TX,TX 2.8 ng/ml,45.8191%
same,Efficacy of TX,TX 3.2 ng/ml,51.1569%
same,Efficacy of TX,TX 3.6 ng/ml,55.7657%
same,Efficacy of TX,TX 4 ng/ml,59.7311%
same,Efficacy of TX,TX 5 ng/ml,67.3956%
same,Efficacy of TX,TX 6 ng/ml,72.7395%
same,Efficacy of TX,TX 7 ng/ml,76.5600%
same,Efficacy of TX,TX 8 ng/ml,79.3653%
same,Efficacy of TX,TX 10 ng/ml,83.1039%
same,Efficacy of TX,TX 12 ng/ml,85.4029%
same,Efficacy of TX,TX 14 ng/ml,86.9144%
same,Efficacy of TX,TX 16 ng/ml,87.9614%
